In patent US9980976B2, “Use of REDD1 inhibitors to dissociate therapeutic and adverse atrophogenic effects of glucocorticoid receptor agonists” (Northwestern University, priority 2015, dated 2018):

Assays:
mouse skin = assay: Glucocorticoid-induced skin atrophy in mice (morphometric analysis of dorsal skin); format: in vivo
Procedure: Seven-week-old females in the telogen stage of the hair cycle were shaved and treated 3 days later. Glucocorticoid FA was applied topically (2 μg/animal) in 200 μl acetone to the back skin once or up to four times every third day as described (Chebotaev et al, 2007c). Control animals were treated with acetone only. Animals were injected i.p. with bromodeoxyuridine (BrdU, Sigma-Aldrich, 50 μg/g of animal weight) 1 h before skin was harvested. Epidermis and s.c. fat were isolated from the murine dorsal skin mechanically by scraping (Chebotaev et al, 2007c). […] Quantification of the epidermal width and number of basal keratinocytes (as the readouts for skin atrophy and hypoplasia of raft epidermis) was performed in dorsal skin and ORC sections stained with H&E. The number of dermal cells was determined on sections stained with Masson's trichrome in the upper (papillary) dermis that is distinguishable from the lower (reticular) dermis ([…] et al, 2013). At least 10 individual fields per slide with at least three samples in each experimental group were counted using Axioplan2 microscope software (Carl Zeiss). All measurements are presented as % to corresponding control.

pri-miR-221 = assay: Q-PCR analysis of primary miR-221 in mouse epidermis; format: in vivo; conditions: 24 h after single FA application and after the first week of chronic treatment
Procedure: FIG. 9. Inverse correlation between pri-miR-221 and REDD1 expression during glucocorticoid treatment. B6D2 mice were treated with FA topically as described in Materials and Methods, epidermis was harvested at indicated time points. A. Western blot analysis. B. Q-PCR analysis of primary miR-221. Data are expressed as the fold change (mean±SD) with respect to the controls (unpaired two-tailed t-test, n=3).
Total RNA from murine epidermis, whole human skin, and cell cultures was isolated with RiboPure kit (Ambion, Life Technologies, Grand Island, N.Y., USA). Total RNA from murine s.c. adipose was isolated with RNeasy Lipid Tissue Kit (Qiagen, Valencia, Calif., USA). The RNA samples were treated with TURBOT™ DNase (Ambion). The gene expression was assessed using semi-quantitative two-step RT-PCR and quantitative Q-PCR. Reverse transcription was performed using 1 μg RNA, random hexamers, and M-MLV reverse transcriptase (Invitrogen, Life Technologies), according to manufacturer instructions. The gene-specific primers were designed with NCBI Primer-BLAST (data not shown, see Baida et al., EMBO, 2015, at Supplementary Table S4). […] For semi-quantitative PCRs, Taq DNA polymerase (Promega) was used, and PCR products were separated on 1.5% agarose gel and visualized using automated imaging system (Bio-Rad, Hercules, Calif., USA). […]

[1] = system: CD34+ follicular SCs and p63-positive progenitors; assay: CD34+ follicular epithelial stem cells and p63+ progenitors in mouse skin (immunostaining); format: in vivo; conditions: chronic FA treatment
Source text: Sections of formalin-fixed, paraffin-embedded skin and ORCs were stained with hematoxylin and eosin (H&E), Masson's trichrome to evaluate the effect on dermis and collagen fibers (Sheehan & Hrapchack, 1980), and with antibodies against BrdU (BD Biosciences, San Jose, Calif., USA), keratins 1, 5, and 10, loricrin (Covance, Princeton, N.J.), phospho-mTORSer2448 (Cell Signaling Technology, Inc., Danvers, Mass., USA), REDD1 (Proteintech Group, Inc, Chicago, Ill.), p63 (eBioscience, San Diego, Calif., USA), and CD34 (Abcam, Cambridge, Mass., USA).
The numbers of BrdU+, p63+, and total number of basal keratinocytes were evaluated in 10 fields of view in each skin/ORC sample under the microscope. Number of BrdU+ and p63+ cells is presented as percent of total number of basal keratinocytes. The number of CD34+ hair follicles among 10 randomly selected hair follicles per skin sample was evaluated under the microscope.

[2] = system: glucocorticoid-responsive genes in murine epidermis; assay: Genome-wide expression profiling of murine epidermis (microarray, Q-PCR validation); format: in vivo, mouse; conditions: FA
Procedure: To investigate the global role of REDD1 in GR signaling, we performed genome-wide expression profiling of the epidermis of REDD1 and wild-type mice treated with vehicle (control) or FA using Illumina mouse whole-genome gene array (GEO Submission GSE59151). Gene expression was measured 24 h post-FA application, when both TA and TR are usually fully developed (Wu et al, 2004). Differential expression was identified based on the adjusted P-value threshold of 0.05.
RNA samples were checked for quality and integrity with the Agilent 2100 bioanalyzer and used for microarray analysis. RNA amplification, labeling, and hybridization with the Mouse Whole-Genome Gene Expression BeadChips MouseRef-8 v2.0 (Illumina) were performed at the Genomics Core Facility at the Center for Genetic Medicine at Northwestern University according to Illumina protocols.
Microarray processing was performed using the Limma package (Smyth, 2005), using the neqc function to perform background subtraction using the negative control probes, and quantile normalization using both positive and negative control probes. Differentially expressed probes were identified using the linear model implemented in Limma, applying an adjusted P-value threshold of 0.05. Q-PCR and microarray based gene expression values were compared using linear Pearson correlation.
Gene ontology analysis was performed using the DAVID Bioinformatics resource tool (Huang et al, 2009a,b), submitting differentially expressed probes from each experiment, against the probe background of MouseRef 8. DAVID performs a hypergeometric test to identify overrepresented GO terms in a list of differentially expressed probes. Results are presented for categories with greater than or equal to threefold enrichment and P=0.01.

[3] = B6D2 mice, FA 2 μg/animal topically every 72 h, 2-week treatment

In the case of `CC1(C)O[C@@H]2C[C@H]3[C@@H]4C[C@H](F)C5=CC(=O)C=C[C@]5(C)[C@@]4(F)[C@@H](O)C[C@]3(C)[C@]2(C(=O)CO)O1` [FA, fluocinolone acetonide], the “depletion of the interfollicular basal keratinocytes” value (mouse skin; [3]) is reported as 50%, the epidermal thinning (mouse skin; [3]) is reported as 50% and the “depletion of s.c. adipose tissue” value (mouse skin; B6D2 mice, chronic FA treatment) is reported as “complete depletion”. The “reduction of epidermal thickness” value (mouse skin; B6×129 mice, FA 2 ug/animal every 72 h for 2 weeks, with or without rapamycin 500 ug/animal×5 hrs pretreatment) was 50%, the skin atrophy (mouse skin; F1 C57B1×129 mice, topical FA, 2 wk treatment) was “severe skin atrophy” and the “reduction of epidermal thickness” value (mouse skin; REDD1 KO mice, chronic FA 2 μg/animal every 72 h for 2 weeks) was less than 20%. The “number of dermal fibroblasts” value (mouse skin; w.t. B6×129 mice treated with FA×2 wk, Masson's trichrome) was “strongly decreased”, the “reduction of epidermal thickness” value (mouse skin; wild-type B6×129 mice, chronic FA 2 μg/animal every 72 h for 2 weeks) was 50% and the pri-miR-221 level (pri-miR-221) was “significantly increased”. The “decrease in number of p63+ basal keratinocytes” value ([1]; REDD1 KO mice) was 20%, the “hair follicles CD34 positive” value ([1]; REDD1 KO mice) was 40% and the “decrease in number of p63-positive progenitors in the basal layer of epidermis” value ([1]; wild-type mice) was roughly 40%. For the same compound, the “hair follicles CD34 positive” value ([1]; wild-type mice) was 5%, the “gene categories up-regulated (GO analysis)” value ([2]; REDD1 KO keratinocytes) was “up-regulated genes related to autophagy, endosomes, and PI3K signaling” and the “Cd74 and H2-Ab1 expression (Q-PCR array validation)” value ([2]; wild-type and REDD1 KO epidermis) was “similarly down-regulated”. For the same compound, the “gene categories inhibited (GO analysis)” value ([2]; wild-type but not REDD1 KO skin) was “inhibited genes related to DNA replication”.
